Read-outs that look alike come from different tables or passages of the source.

For orientation: Cmax means the highest concentration seen after dosing. Usually Tmax stands for the time from dosing to the highest level.

A short description of data set [1]: Plasma concentrations of ayahuasca compounds and metabolites after oral ayahuasca (LC/MS/MS). Type of data set: in vivo, human. Further details: AUC (mean ± sd): unit not given here. Particulars: for Cmax: po; for Time to reach plateau of plasma level in the group average: from ayahuasca ingestion, group average curve. From the text: A sample of six liters of "Hoasca" was donated by the União do Vegetal (UDV) church in Brazil for the specific purpose of use in this study. Quantification of the main compounds in the brew was done with liquid chromatography-electrospray ionization-tandem mass spectrometry (LC/MS/MS). The screening included the following compounds: DMT, DMT‐N‐oxide (DMT-NO), N‐methyltryptamine (NMT), indoleacetic acid (IAA), 5‐hydroxy‐DMT (5-OH-DMT, or bufotenin), 5‐methoxy‐DMT (5-MeO-DMT), Harmine, Harmol, Harmaline, Harmalol, THH, 7‐hydroxy‐tetrahydroharmine (THH-OH), and 2‐methyl‐tetrahydro‐beta‐carboline (2-MTHBC). The original liquid volume was then reduced to 50% using a rotary evaporator to decrease the amount of liquid intake.
Blood was collected in sterile EDTA containing tubes. Ten blood samples (3 mL each) were collected every 25 minutes, starting 25 minutes before ayahuasca ingestion and ending 200 minutes after ingestion (in a total of ten samples for each individual). Blood was collected by a professional nurse, with a catheter that remained in place during the entire time of the study. Each tube was carefully and slowly turned upside-down three times and then stored at 0°C until all ten samples were collected. Blood samples were then centrifuged at 2000 rpm for 10 min at 4°C and the resulting plasma immediately collected and frozen at -80°C. The frozen plasma samples were stored at -80°C until shipped on dry ice to USA for analysis according to [31]. Compounds included in this screening were DMT, DMT-NO, NMT, IAA, 5-OH-DMT (bufotenin), 5-MeO-DMT, Harmine, Harmol, Harmaline, Harmalol, THH, THH-OH and 2-MTHBC.
Two volunteers opted out of blood collection, and data from one volunteer was discarded due to high hemolysis in the blood samples. Therefore data were available from 16 volunteers. Maximum plasma Concentration (Cmax), Time for maximum plasma concentration (Tmax) and area under the curve (AUC) of ten identified compounds are summarized in Table 2. […] No significant differences were found between men and women for any of the identified compounds in blood. […] There were no significant correlations between time to vomit and Cmax or AUC.

In the next data set the test system is MAO-A. Further details: method as in PMID 19879939. The note with it: cited from earlier work.
For another data set, the system named is human subjects. The note with it: cited from earlier work.
In the next data set the test system is healthy volunteers. Kind of data set: Association between plasma concentration and EEG spectral changes (generalized linear models). It counts as in vivo, human. The note with it: for Clusters between plasma concentration and EEG spectra: delta, theta and beta frequency bands; for Cohen's d, plasma concentration vs fast-gamma power increase: one large widespread bilateral cluster. Here is the method: Relationships between plasma concentration of identified compounds and spectral changes in the six frequency bands evaluated were calculated by fitting generalized linear models (glmfit function in MATLAB) for each compound and frequency band. This analysis was followed by the non-parametric cluster based correction with 5000 permutations.
Results were considered statistically significant when p <0.05. Effect sizes are also reported, using Partial eta squared (partial η^2) for the main frequency clusters and Cohen’s d for the generalized linear models.

In the next data set the test system is rats. The arrangement: method as in PMID 9649961. Particulars: cited from earlier work.
The conditions of data set [2]: cited from earlier work.
A further data set relates to 5HT-2A receptors. Particulars: cited from earlier work.
The mark [3] stands for this setting: plasma, 16 volunteers, oral ayahuasca.

As to `COc1ccc2c3c([nH]c2c1)C(C)=NCC3` [Harmaline], the maximum concentration (Cmax) in data set [1] (both sexes, human, in vivo, plasma, 16 volunteers, oral ayahuasca, sampling to 200 min, read-out: Cmax (mean ± sd)) was 14.7 ± 13.9 ng/mL; in data set [1] (both sexes, human, in vivo, plasma, 16 volunteers, oral ayahuasca, read-out: Cmax (min—max)) it was 1.56 to 44.4 ng/mL. For the same compound, the Tmax in data set [1] (both sexes, human, in vivo, plasma, 16 volunteers, oral ayahuasca, read-out: Tmax (mean ± sd) (converted)) was 2.68 h. The “Time to reach plateau of plasma level in the group average” value in data set [1] came to 100 min. Also, in data set [1] (setting [3]), the “AUC (min—max)” value lay within 6.16 to 199.78 g·min/mL. Further, the “Potency at inhibiting MAO-A relative to MAO-B” value in the data set on MAO-A is 10,000 fold. The “Dose necessary for psychoactivity” value in the data set on human subjects (oral or i.v. administration) is 4 mg/kg. Moreover, the Orally psychoactive dose with human subjects (oral) is 300 to 400 mg. Besides, the “Clusters between plasma concentration and EEG spectra” value with healthy volunteers was “did not show any significant clusters”. In addition, the “Cohen's d, plasma concentration vs alpha band power decrease” value in the data set with healthy volunteers (left centro-parieto-occipito-frontal electrodes) came to 0.0285; in the data set on healthy volunteers (right central electrodes (C2, C4, CP4 and CP6)), 0.2944. Moreover, the “Cohen's d, plasma concentration vs slow-gamma power increase” value (from here on “Cohen's d … vs slow-gamma power increase”) in the data set on healthy volunteers (left fronto-temporo-centro-parieto-occipital electrodes also extending to right temporo-parietal electrodes) turned out to be 0.0885; in the data set on healthy volunteers (right frontal electrodes), 0.0401. In addition, the “Cohen's d, plasma concentration vs fast-gamma power increase” value in the data set on healthy volunteers is reported as 0.0032. For the same compound, the “Substitution in drug discrimination” value in the data set with rats is “substitute the psychedelic DOM”.

As to `COc1ccc2c3c([nH]c2c1)[C@@H](C)NCC3` [THH, tetrahydroharmine], the “Time to reach plateau of plasma level in the group average” value in data set [1] was 150 min. For the same compound, in data set [1] (setting [3]), the “AUC (mean ± sd)” value is reported as 1262.09 ± 1270.39, the “AUC (min—max)” value lay in the range of 75.01 to 3762.73 g·min/mL, the “Cmax (min—max)” value is 22.62 to 895.70 ng/mL and the “Tmax (mean ± sd)” value worked out at 3.1772 ± 0.7117 h. In addition, the “Cmax (mean ± sd)” value in data set [1] (plasma, 16 volunteers, oral ayahuasca, sampling to 200 min) stood at 328.76 ± 324.86 ng/mL. Further, in data set [2] (after ingestion of ayahuasca), the “Recovery in 24 h urine as THH and THH-OH” value is reported as 9%. Further, the Half-life in data set [2] is about 9 h. For the same compound, in the data set on 5HT-2A receptors, the “Affinity for 5HT-2A receptors” value is “moderate affinity”. Besides, the “Cohen's d … vs slow-gamma power increase” value with healthy volunteers (bilateral parieto-occipital cluster) is recorded as 0.0656. Further, in the data set with healthy volunteers, the “Clusters between plasma concentration and EEG spectra” value is recorded as “did not show any significant clusters”; the “Cohen's d, plasma concentration vs fast-gamma power increase” value was found to be 0.0501. Besides, in the data set with healthy volunteers (left fronto-centro-parieto-occipital cluster extending to some right centro-parietal electrodes), the “Cohen's d, plasma concentration vs alpha band power decrease” value is on record as 0.0044. In addition, in the data set on healthy volunteers (left fronto-temporo-central electrodes), the “Cohen's d … vs slow-gamma power increase” value is 0.0795. Moreover, in the data set with healthy volunteers (right frontal electrodes), the “Cohen's d … vs slow-gamma power increase” value stood at 0.0366.

(Values after paper PMC4589238, “Acute Biphasic Effects of Ayahuasca” (PLoS ONE, 2015).)
